Data taken from patent US10996215B2, “Methods for determining drug efficacy for the treatment of diffuse large B-cell lymphoma, multiple myeloma, and myeloid cancers” (CELGENE CORPORATION, priority 2013, dated 2021).

Columns and labels:
[1] = system: Aiolos, Ikaros, IRF4, Cereblon; test: Western blot of Aiolos, Ikaros, IRF4, Cereblon in DLBCL cell lines; type: cell-based, human
Description: Immunoblots were probed with antibodies recognizing: Aiolos, Ikaros, Cereblon, IRF4, c-myc, CD44, EZH2, EBF 1, PU. 1, and β-actin. Signals were detected with a LI-COR imager
The following steps can be performed to harvest cells in preparation for Western Blot analysis. The steps are performed on ice and any centrifugation is performed in a 4° C. refrigerated centrifuge. RIPA lysis buffer (Pierce, cat #89900) is first prepared by adding […] proteinase inhibitors (Pierce, cat #78443) to 1 mL of RIPA buffer. Subsequently, cells are washed once in ice-cold phosphate buffered saline (PBS). The cells are then lysed with 0.25 mL RIPA lysis buffer. The PBMCs are placed on ice for 30 minutes and vortexed every 10 minutes. Lysates are frozen and stored at −80° C. prior to further processing.
Lysates are placed in a QIAshredder® tube (QIAGEN, cat #79656) and spun down 30 sec, top speed (13200 rpm) in an Eppendorf benchtop centrifuge (Model 5415 R). The lysate is then transferred to a 1.5 mL clear Eppendorf tube and spun down 10 min at top speed. The supernatent is collected without disturbing the cell debris pellet. The supernatent is dry ice frozen and stored at −80° C. prior to analysis.
The protein concentration in supernatent is measured using BCA assay and the expected protein yield is about 0.5-5 μg/μL, or 125-1250 μg total. Approximately ≥10 μg protein per lane is loaded for western blotting (IRF4, IKZF3, etc.) using antibodies against the human proteins.
Membranes are immunblotted with anti-Aiolos (Santa Cruz Biotechnology, Dallas, Tex.), anti-Ikaros (Millipore, Billerica, Mass.) and anti-Actin (Sigma, St. Louis, Mo.; or LI-COR Biosciences, Lincoln, Nebr.) and secondary antibodies (LI-COR Biosciences, Lincoln, Nebr.). The blots are analyzed on Odyssey imager (LI-COR Biosciences, Lincoln, Nebr.).

CSNK1A1 (CK1α), Ikaros = test: MG-132, MLN-4924 or Compound A pre-treatment, Western analysis in HNT-34 cells; type: cell-based; details: 10 μM, 3 h or 6 h
MDS-L = test: 4 d BrdU cell assay / tritiated thymidine, sensitivity; type: cell-based
Description: (§1) Sensitivity to lenalidomide treatment in a panel of myeloid cancer cell lines was evaluated by tritiated thymidine and/or BrdU assays.

HNT-34 = test: as above; type: cell-based
Description: as §1

IFN pathway = test: effect on IFN pathway (FIG. 13); type: cell-based
ABC-DLBCL cell line = test: Tandem Mass Tag proteomics, lenalidomide vs Compound A; type: cell-based; details: ABC-DLBCL cell line; 10 uM; 24 h; vs DMSO
From the text: Cells were harvested and proteins were fractionated using a basic pH reverse gradient method. Fractionated samples were labeled using a Tandem Mass Tag method.

CSNK1A1, Ikaros = test: Western analysis of BMMC or PBMC of lenalidomide-treated AML patients; type: in vivo; details: 50 mg daily
Description: 3-5 μg total protein from each sample was evaludated for CSNK1A1, Ikaros, and GAPDH expressions by western analysis.

AML cell line (HNT-34) = test: tandem-mass-tagged proteomics of global cellular protein levels; type: cell-based, human; details: 10 micromolar
Description: (§2) Samples were subjected to multiplexed quantitative mass spectrometry analysis. In particular, cell lysate was prepared from the samples, and was subjected to tandem protein digestion using LysC and trypsin, peptide labeling with either Tandem Mass Tag 6-plex or 10-plex reagents, and peptide fractionation. Multiplexed quantitative mass spectrometry data were collected on an Orbitrap Fusion mass spectrometer operating in a MS3 mode using synchronous precursor selection for the MS2 to MS3 fragmentation. MS/MS data were searched against a Uniprot human database with both the forward and reverse sequences using the SEQUEST algorithm. Additional data processing steps included controlling peptide and protein level false discovery rates, assembling proteins from peptides, and protein quantification from peptides. Each drug-treated sample has 3 replicates, each DMSO sample has 4 replicates.
(§3) T is the statistic calculated for the t.test. P.value represents statistical significance for the test. Adj.P.value represents FDR multiple testing correction of the P.values in previous parameter. B log odds that the protein is differentially abundant between the conditions (compound vs control).

[2] = system: del(5q) MDS cell line (MDS-L); test: as above; type: cell-based, human
Description: as §2, §3

[3] = system: DLBCL cell lines (GCB and ABC); test: tritiated thymidine incorporation proliferation assay; type: cell-based
Description: Cells were then cultured for 3 days at 37° C. Tritiated thymidine was applied to the cell culture for the final 6 hours and cells were then harvested onto filter plates. After the plates have dried, scintillation fluid was added to the plates and read on a Top-count reader.
The cells were then analyzed for proliferation using a ^3H-thymidine incorporation assay.
Proliferation was assessed through tritiated thymidine incorporation.

[4] = system: other myeloid cancer cell lines; test: 4 d BrdU cell assay, sensitivity; type: cell-based; details: other cell lines of the panel, predominantly insensitive
Description: as §1

Nc1cccc2c1CN(C1CCC(=O)NC1=O)C2=O (stereo not shown) [lenalidomide, 3-(4-amino-1-oxo-1,3-dihydro-isoindol-2-yl)-piperidine-2,6-dione]
IRF4 levels ([1]; DLBCL cell lines, 1 μM or 10 μM, within 72 hours): reduce | Aiolos levels ([1]; Karpas 422 (GCB) and TMD8 (ABC), 10 μM, 1, 6 or 12 hours, vs DMSO): decrease | Aiolos and Ikaros levels ([1]; WSU-DLCL2 (GCB) and OCI-LY10 (ABC), 10 μM, 1, 6 or 12 hours, vs DMSO): decreasing | CRBN levels ([1]; nine GCB and ABC DLBCL cell lines, 1 μM or 10 μM, 72 hours): remained constant | Aiolos and Ikaros levels ([1]; nine GCB and ABC DLBCL cell lines, 1 μM or 10 μM, 72 hours, vs DMSO): decreasing | CSNK1A1 and Ikaros proteins levels (CSNK1A1 (CK1α), Ikaros): decreased | EC50 (MDS-L; 96 h, MDS-L, 4 d BrdU): 1500 nM | sensitivity of MDS-L cells (MDS-L; FIG. 22B): sensitive | EC50 (HNT-34; 96 h, HNT-34, 4 d BrdU): 600 nM | sensitivity of HNT-34 cells (HNT-34; FIG. 22B): sensitive | IFIT1, IFIT3, DDX58, XAF1, IFIH1, and OAS3 protein expression (IFN pathway; FIG. 13A): upregulates | DDX58, IFI27, IFIT1, IFIT3, DDX58, and XAF1 gene expression (IFN pathway; FIG. 13B): upregulates | ISG15 and OAS3 gene expression (IFN pathway; FIG. 13C): upregulates | IRF changes (IFN pathway; FIG. 13E): induces | IFIT1 and IFIT3 protein expression (IFN pathway; FIG. 13F): upregulates | IKKE protein level (IFN pathway; FIG. 13F): reduces | TBK1 phosphorylation (TBK1-PO4) (IFN pathway; FIG. 13F): upregulates | levels of STAT or phosphorylated STAT (IFN pathway; FIG. 13G): induces changes | effect on CSNK1A1 protein (ABC-DLBCL cell line): decreases | patients with both CSNK1A1 and Ikaros modulated (down-regulated) (CSNK1A1, Ikaros): 4 of 5 | log2FC CSNK1A1 (AML cell line (HNT-34); 8 hours): −1.6 | log2FC IKZF1 (AML cell line (HNT-34); 8 hours): −2.1 | log2FC CALM1 (AML cell line (HNT-34); 24 hours): −1.1 | log2FC CCNA2 (AML cell line (HNT-34); 24 hours): −1.1 | log2FC CSNK1A1 (AML cell line (HNT-34); 24 hours): −1.4 | log2FC IKZF1 (AML cell line (HNT-34); 24 hours): −2.4 | log2FC SERP1NH1 (AML cell line (HNT-34); 24 hours): 1.1 | log2FC ZFP91 (AML cell line (HNT-34); 24 hours): −1.4 | log2FC ARHGAP18 (AML cell line (HNT-34); 72 hours): 1.0 | log2FC CASS4 (AML cell line (HNT-34); 72 hours): 1.0 | log2FC CORO1B (AML cell line (HNT-34); 72 hours): 1.4 | log2FC CSNK1A1 (AML cell line (HNT-34); 72 hours): −1.5 | log2FC DAB2 (AML cell line (HNT-34); 72 hours): 1.3 | log2FC HSPB1 (AML cell line (HNT-34); 72 hours): 1.5 | log2FC IKZF1 (AML cell line (HNT-34); 72 hours): −2.4 | log2FC ITM2C (AML cell line (HNT-34); 72 hours): −1.2 | log2FC PPFIBP1 (AML cell line (HNT-34); 72 hours): 1.2 | log2FC SERPINH1 (AML cell line (HNT-34); 72 hours): 1.7 | log2FC ZFP91 (AML cell line (HNT-34); 72 hours): −1.1 | log2FC CSNK1A1 ([2]; 10 micromolar, 8 hours): −1.6 | log2FC IKZF1 ([2]; 10 micromolar, 8 hours): −2.1 | log2FC CCNA2 ([2]; 10 micromolar, 24 hours): −1.1 | log2FC CSNK1A1 ([2]; 10 micromolar, 24 hours): −1.4 | log2FC IKZF1 ([2]; 10 micromolar, 24 hours): −2.4 | log2FC SERPINH1 ([2]; 10 micromolar, 24 hours): 1.1 | log2FC ZFP91 ([2]; 10 micromolar, 24 hours): −1.4 | log2FC ARHGAP18 ([2]; 10 micromolar, 72 hours): 1.0 | log2FC CASS4 ([2]; 10 micromolar, 72 hours): 1.0 | log2FC CORO1B ([2]; 10 micromolar, 72 hours): 1.4 | log2FC CSNK1A1 ([2]; 10 micromolar, 72 hours): −1.5 | log2FC CYTL1 ([2]; 10 micromolar, 72 hours): −1.2 | log2FC DAB2 ([2]; 10 micromolar, 72 hours): 1.3 | log2FC HSPB1 ([2]; 10 micromolar, 72 hours): 1.5 | log2FC IKZF1 ([2]; 10 micromolar, 72 hours): −2.4 | log2FC ITM2C ([2]; 10 micromolar, 72 hours): −1.2 | log2FC PPFIBP1 ([2]; 10 micromolar, 72 hours): 1.2 | log2FC SERP1NH1 ([2]; 10 micromolar, 72 hours): 1.7 | log2FC YEATS2 ([2]; 10 micromolar, 72 hours): 2.5 | log2FC ZFP91 ([2]; 10 micromolar, 72 hours): −1.1 | down-regulation of Ikaros ([2]; 72 hrs, most down-regulated protein): about 5 fold | down-regulation of CSNK1A1 ([2]; 72 hrs, second most down-regulated protein): about 3 fold | sensitivity of ABC DLBCL cell lines [3]: sensitive | sensitivity of GCB cell lines [3]: less sensitive | EC50 [4]: > 10000 nM
